Reference: patent US10906873B2, “Substituted cyclic amides as herbicides” (FMC Corporation, priority 2015, dated 2021)

Legend:
Type in all cases: in vivo
[1] = tested on: barnyardgrass (Echinochloa crus-galli); experiment: Test A preemergence, barnyardgrass; conditions: 0 to 100 scale
Source text: (§1) Seeds of plant species selected from barnyardgrass (Echinochloa crus-galli), crabgrass (large crabgrass, Digitaria sanguinalis), kochia (Kochia scoparia), ragweed (common ragweed, Ambrosia elatior), morningglory (Ipomoea spp.), velvetleaf (Abutilon theophrasti), ryegrass, It. (Italian ryegrass, Lolium multiflorum), foxtail, giant (giant foxtail, Setaria faberii), wheat (Triticum aestivum), corn (Zea mays), and pigweed (Amaranthus retroflexus), were planted into a blend of loam soil and sand and treated preemergence with a directed soil spray using test chemicals formulated in a non-phytotoxic solvent mixture which included a surfactant. At the same time, plants selected from these crop and weed species and also blackgrass (Alopecurus myosuroides), and galium (catchweed bedstraw, Galium aparine), were planted in pots containing the same blend of loam soil and sand and treated with postemergence applications of test chemicals formulated in the same manner. Plants ranged in height from 2 to 10 cm and were in the one- to two-leaf stage for the postemergence treatment. Treated plants and untreated controls were maintained in a greenhouse for approximately 10 d, after which time all treated plants were compared to untreated controls and visually evaluated for injury. Plant response ratings, summarized in Table A, are based on a 0 to 100 scale where 0 is no effect and 100 is complete control. A dash (-) response means no test result.

kochia (Kochia scoparia) [2] = experiment: Test A preemergence, kochia; conditions: 0 to 100 scale
Source text: as §1

[3] = tested on: ragweed (common ragweed, Ambrosia elatior); experiment: Test A preemergence, ragweed; conditions: 0 to 100 scale
Source text: as §1

[4] = tested on: ryegrass, It. (Italian ryegrass, Lolium multiflorum); experiment: Test A preemergence, ryegrass, It.; conditions: 0 to 100 scale
Source text: as §1

[5] = tested on: foxtail, giant (giant foxtail, Setaria faberii); experiment: Test A preemergence, foxtail, giant; conditions: 0 to 100 scale
Source text: as §1

[6] = tested on: pigweed (Amaranthus retroflexus); experiment: Test A preemergence, pigweed; conditions: 0 to 100 scale
Source text: as §1

[7] = tested on: barnyardgrass (Echinochloa crus-galli); experiment: Test A postemergence, barnyardgrass; conditions: 0 to 100 scale
Source text: as §1

kochia (Kochia scoparia) [8] = experiment: Test A postemergence, kochia; conditions: 0 to 100 scale
Source text: as §1

[9] = tested on: ragweed (common ragweed, Ambrosia elatior); experiment: Test A postemergence, ragweed; conditions: 0 to 100 scale
Source text: as §1

[10] = tested on: ryegrass, It. (Italian ryegrass, Lolium multiflorum); experiment: Test A postemergence, ryegrass, It.; conditions: 0 to 100 scale
Source text: as §1

[11] = tested on: foxtail, giant (giant foxtail, Setaria faberii); experiment: Test A postemergence, foxtail, giant; conditions: 0 to 100 scale
Source text: as §1

[12] = tested on: wheat (Triticum aestivum); experiment: Test A postemergence, wheat; conditions: 0 to 100 scale
Source text: as §1

corn (Zea mays) = experiment: Test A postemergence, corn; conditions: 0 to 100 scale
Source text: as §1

[13] = tested on: pigweed (Amaranthus retroflexus); experiment: Test A postemergence, pigweed; conditions: 0 to 100 scale
Source text: as §1

[14] = tested on: blackgrass (Alopecurus myosuroides); experiment: Test A postemergence, blackgrass; conditions: 0 to 100 scale
Source text: as §1

[15] = tested on: galium (catchweed bedstraw, Galium aparine); experiment: Test A postemergence, galium; conditions: 0 to 100 scale
Source text: as §1

[16] = tested on: barnyardgrass (Echinochloa crus-galli); experiment: Test B flooded paddy test, barnyardgrass; conditions: Flood, scale of 0 to 100 where 0 is no effect and 100 is complete control, 13 to 15 d
Method: (§2) Plant species in the flooded paddy test selected from rice (Oryza sativa), sedge, umbrella (small-flower umbrella sedge, Cyperus difformis), ducksalad (Heteranthera limosa), and barnyardgrass (Echinochloa crus-galli) were grown to the 2-leaf stage for testing. At time of treatment, test pots were flooded to 3 cm above the soil surface, treated by application of test compounds directly to the paddy water, and then maintained at that water depth for the duration of the test. Treated plants and controls were maintained in a greenhouse for 13 to 15 d, after which time all species were compared to controls and visually evaluated. Plant response ratings, summarized in Table B, are based on a scale of 0 to 100 where 0 is no effect and 100 is complete control. A dash (-) response means no test result.

[17] = tested on: ducksalad (Heteranthera limosa); experiment: Test B flooded paddy test, ducksalad; conditions: Flood, scale of 0 to 100 where 0 is no effect and 100 is complete control, 13 to 15 d
Method: as §2

rice (Oryza sativa) = experiment: Test B flooded paddy test, rice; conditions: Flood, scale of 0 to 100 where 0 is no effect and 100 is complete control, 13 to 15 d
Method: as §2

[18] = tested on: sedge, umbrella (small-flower umbrella sedge, Cyperus difformis); experiment: Test B flooded paddy test, sedge, umbrella; conditions: Flood, scale of 0 to 100 where 0 is no effect and 100 is complete control, 13 to 15 d
Method: as §2

| SMILES | Plant response rating, Barnyardgrass ([1]; 125 g ai/ha) | Plant response rating, Barnyardgrass ([1]; 500 g ai/ha) | Plant response rating, Kochia (kochia (Kochia scoparia) [2]; 125 g ai/ha) | Plant response rating, Kochia (kochia (Kochia scoparia) [2]; 500 g ai/ha) | Plant response rating, Ragweed ([3]; 125 g ai/ha) | Plant response rating, Ragweed ([3]; 500 g ai/ha) | Plant response rating, Ryegrass, It. ([4]; 125 g ai/ha) | Plant response rating, Ryegrass, It. ([4]; 500 g ai/ha) | Plant response rating, Foxtail, Giant ([5]; 125 g ai/ha) | Plant response rating, Foxtail, Giant ([5]; 500 g ai/ha) | Plant response rating, Pigweed ([6]; 125 g ai/ha) | Plant response rating, Pigweed ([6]; 500 g ai/ha) | Plant response rating, Barnyardgrass ([7]; 125 g ai/ha) | Plant response rating, Barnyardgrass ([7]; 500 g ai/ha) | Plant response rating, Kochia (kochia (Kochia scoparia) [8]; 125 g ai/ha) | Plant response rating, Kochia (kochia (Kochia scoparia) [8]; 500 g ai/ha) | Plant response rating, Ragweed ([9]; 125 g ai/ha) | Plant response rating, Ragweed ([9]; 500 g ai/ha) | Plant response rating, Ryegrass, It. ([10]; 125 g ai/ha) | Plant response rating, Ryegrass, It. ([10]; 500 g ai/ha) | also measured |
| --- | --- | --- | --- | --- | --- | --- | --- | --- | --- | --- | --- | --- | --- | --- | --- | --- | --- | --- | --- | --- | --- |
| O=C1NCC(C#Cc2ccc(F)cc2)C1C(=O)Nc1cccc(F)c1F (stereo not drawn) [Compound 16] | 20 | 90 | 0 | 0 | 0 | 0 | 0 | 0 | 60 | 90 | 0 | 0 | 40 | 60 | 0 | 0 | 0 | 0 | 0 | 0 | Plant response rating, Foxtail, Giant ([11]; 125 g ai/ha): 20; Plant response rating, Foxtail, Giant ([11]; 500 g ai/ha): 40; Plant response rating, Wheat ([12]; 125 g ai/ha): 0; Plant response rating, Wheat ([12]; 500 g ai/ha): 0; Plant response rating, Corn (corn (Zea mays); 125 g ai/ha): 0; Plant response rating, Corn (corn (Zea mays); 500 g ai/ha): 0; Plant response rating, Pigweed ([13]; 125 g ai/ha): 0; Plant response rating, Pigweed ([13]; 500 g ai/ha): 0; Plant response rating, Blackgrass ([14]; 125 g ai/ha): 0; Plant response rating, Blackgrass ([14]; 500 g ai/ha): 0; Plant response rating, Galium ([15]; 125 g ai/ha): 0; Plant response rating, Galium ([15]; 500 g ai/ha): 0; Plant response rating, Barnyardgrass ([16]; 250 g ai/ha): 0; Plant response rating, Ducksalad ([17]; 250 g ai/ha): 70; Plant response rating, Rice (rice (Oryza sativa); 250 g ai/ha): 0; Plant response rating, Sedge, Umbrella ([18]; 250 g ai/ha): 0 |
| O=C1NCC(Cc2cccc(F)c2F)C1C(=O)Nc1cccc(F)c1F (stereo not drawn) [Compound 8] | 0 | 0 | 0 | 0 | 0 | 0 | 0 | 0 | 0 | 50 | 0 | 0 | 0 | 0 | 0 | 0 | 0 | 0 | 0 | 0 | Plant response rating, Foxtail, Giant ([11]; 125 g ai/ha): 0; Plant response rating, Foxtail, Giant ([11]; 500 g ai/ha): 0; Plant response rating, Wheat ([12]; 125 g ai/ha): 0; Plant response rating, Wheat ([12]; 500 g ai/ha): 0; Plant response rating, Corn (corn (Zea mays); 125 g ai/ha): 0; Plant response rating, Corn (corn (Zea mays); 500 g ai/ha): 0; Plant response rating, Pigweed ([13]; 125 g ai/ha): 0; Plant response rating, Pigweed ([13]; 500 g ai/ha): 0; Plant response rating, Blackgrass ([14]; 125 g ai/ha): 0; Plant response rating, Blackgrass ([14]; 500 g ai/ha): 0; Plant response rating, Galium ([15]; 125 g ai/ha): 0; Plant response rating, Galium ([15]; 500 g ai/ha): 0; Plant response rating, Barnyardgrass ([16]; 500 g ai/ha): 0; Plant response rating, Ducksalad ([17]; 500 g ai/ha): 0; Plant response rating, Rice (rice (Oryza sativa); 500 g ai/ha): 0; Plant response rating, Sedge, Umbrella ([18]; 500 g ai/ha): 0 |
| O=C1NCC(/C=C/c2ccccc2)C1C(=O)Nc1ccccc1F (stereo not drawn) [Compound 32] | 20 | 60 | 0 | 0 | 0 | 0 | 0 | 0 | 0 | 80 | 0 | 0 | 40 | 90 | 0 | 0 | 10 | 10 | 0 | 0 | Plant response rating, Foxtail, Giant ([11]; 125 g ai/ha): 20; Plant response rating, Foxtail, Giant ([11]; 500 g ai/ha): 80; Plant response rating, Wheat ([12]; 125 g ai/ha): 0; Plant response rating, Wheat ([12]; 500 g ai/ha): 0; Plant response rating, Corn (corn (Zea mays); 125 g ai/ha): 20; Plant response rating, Corn (corn (Zea mays); 500 g ai/ha): 20; Plant response rating, Pigweed ([13]; 125 g ai/ha): 0; Plant response rating, Pigweed ([13]; 500 g ai/ha): 0; Plant response rating, Blackgrass ([14]; 125 g ai/ha): 0; Plant response rating, Blackgrass ([14]; 500 g ai/ha): 0; Plant response rating, Galium ([15]; 125 g ai/ha): 0; Plant response rating, Galium ([15]; 500 g ai/ha): 0; Plant response rating, Barnyardgrass ([16]; 250 g ai/ha): 0; Plant response rating, Ducksalad ([17]; 250 g ai/ha): 70; Plant response rating, Rice (rice (Oryza sativa); 250 g ai/ha): 0; Plant response rating, Sedge, Umbrella ([18]; 250 g ai/ha): 0 |
| O=C1NCC(C#Cc2cccc(Cl)c2)C1C(=O)Nc1ccccc1F (stereo not drawn) [Compound 29] | 30 | 70 | 0 | 0 | 0 | 0 | 0 | 0 | 0 | 60 | 0 | 0 | 0 | 60 | 0 | 0 | 0 | 0 | 0 | 0 | Plant response rating, Foxtail, Giant ([11]; 125 g ai/ha): 0; Plant response rating, Foxtail, Giant ([11]; 500 g ai/ha): 60; Plant response rating, Wheat ([12]; 125 g ai/ha): 0; Plant response rating, Wheat ([12]; 500 g ai/ha): 0; Plant response rating, Corn (corn (Zea mays); 125 g ai/ha): 0; Plant response rating, Corn (corn (Zea mays); 500 g ai/ha): 0; Plant response rating, Pigweed ([13]; 125 g ai/ha): 0; Plant response rating, Pigweed ([13]; 500 g ai/ha): 0; Plant response rating, Blackgrass ([14]; 125 g ai/ha): 0; Plant response rating, Blackgrass ([14]; 500 g ai/ha): 0; Plant response rating, Galium ([15]; 125 g ai/ha): 0; Plant response rating, Galium ([15]; 500 g ai/ha): 0; Plant response rating, Barnyardgrass ([16]; 250 g ai/ha): 0; Plant response rating, Ducksalad ([17]; 250 g ai/ha): 75; Plant response rating, Rice (rice (Oryza sativa); 250 g ai/ha): 0; Plant response rating, Sedge, Umbrella ([18]; 250 g ai/ha): 0 |
| Cc1cccc(C#CC2CNC(=O)C2C(=O)Nc2ccc(F)c(F)c2F)c1 (stereo not drawn) [Compound 23] | 60 | 80 | 0 | 0 | 0 | 0 | 0 | 0 | 40 | 80 | 0 | 0 | 20 | 50 | 0 | 20 | 0 | 0 | 0 | 0 | Plant response rating, Foxtail, Giant ([11]; 125 g ai/ha): 20; Plant response rating, Foxtail, Giant ([11]; 500 g ai/ha): 50; Plant response rating, Wheat ([12]; 125 g ai/ha): 0; Plant response rating, Wheat ([12]; 500 g ai/ha): 0; Plant response rating, Corn (corn (Zea mays); 125 g ai/ha): 0; Plant response rating, Corn (corn (Zea mays); 500 g ai/ha): 0; Plant response rating, Pigweed ([13]; 125 g ai/ha): 0; Plant response rating, Pigweed ([13]; 500 g ai/ha): 0; Plant response rating, Blackgrass ([14]; 125 g ai/ha): 0; Plant response rating, Blackgrass ([14]; 500 g ai/ha): 0; Plant response rating, Galium ([15]; 125 g ai/ha): 0; Plant response rating, Galium ([15]; 500 g ai/ha): 20; Plant response rating, Barnyardgrass ([16]; 250 g ai/ha): 0; Plant response rating, Ducksalad ([17]; 250 g ai/ha): 0; Plant response rating, Rice (rice (Oryza sativa); 250 g ai/ha): 0; Plant response rating, Sedge, Umbrella ([18]; 250 g ai/ha): 0 |
